Experimental data taken from patent US12661353B2, “SPT5 inhibitors and uses thereof” (Yeda Research and Development Co. Ltd., priority 2020, dated 2026).

How the values were obtained:
[1] = target: T1, endogenous Spt4/Spt5-Pol II complex (Homo sapiens, UniProt O00267+P24928); experiment: Co-immunoprecipitation of endogenous Spt4/Spt5-Pol II complex, HeLa lysates; assay type: binding; conditions: 50 μM
T1 construct: endogenous in cells; host or cells: HeLa cell lysate, immunoprecipitated with anti-Spt5 antibody
Method: Co-immunoprecipitation (CO-IP)—HeLa cells were detached from a 10 cm dish with ice-cold PBS and a cell scraper, centrifuged for 5 minutes at 2,000 rpm and re-suspended in 200 μl lysis buffer (20 mM Tris-HCl pH 8, 400 mM NaCl, 2 mM EDTA, 0.5% NP-40, 10% glycerol) to which a protease inhibitor cocktail (1:100) and PMSF (200 μM) were freshly added. The lysates were rotated for 10 minutes at 4° C.; and centrifuged for 15 minutes at 13,000 rpm. Following, the supernatants were diluted with lysis buffer without NaCl to reach a final concentration of 100 mM NaCl. Cell lysates were then incubated at 4° C. overnight with an anti-Spt5 antibody (Tadashi Wada et al., 1998 Genes and Development. PMID: 9450929) or rabbit IgG (SC-2025, Santa Cruz Biotechnology), followed by 2 hours incubation at 4° C. with Protein A/G Sepharose beads (GE Healthcare). Following, the samples were washed 3 times and incubated for 2 hours at 4° C. with DMSO (vehicle control) or the indicated compound. The immune-precipitated proteins were detected by SDS-PAGE followed by western blot using an anti-Spt5, anti-Pol II (ab817, Abcam) or anti-Spt4 (Kim D K. et al, Genes to cells 2003 PMID: 12653964).
In the next step, co-immunoprecipitation in the presence of SPI-21 or SPI-18 was performed to test their effect of endogenous Spt4/Spt5-Pol II complex. […]

[2] = tested on: replication-dependent histone genes; experiment: Histone gene levels after 24 hours, cDNA with random hexamers, qPCR; assay type: cell-based, human
Method: A schematic illustration of a histone gene structure is shown on the top. For polyA+ RNA analysis, cDNA was prepared with a poly-dT oligonucleotide. In each analysis the levels were normalized to GAPDH; and the bars present the mean of 3±SEM independent experiments. * P<0.05 relative to DMSO (vehicle control). […] The data represent the means±SEMs of 3 independent experiments. The asterisks denote statistically significant differences relative to DMSO; according to Student's t tests (typically one-tailed, paired): *p<0.05; **p<0.01; ***p<0.005.
Since the RNA-seq following treatment with SPI-21 detects only polyadenylated transcripts and the treatment was effected for 2 hours, during which only a fraction of cells is in S-phase, an effect on histone genes was not found. Thus, to investigate further the regulation of histone genes by Spt5 using the identified SPIs, cells were treated for 24 hours with SPI-21 or SPI-18, to allow all cells to pass S-phase at least once. Following, mRNA was extracted and cDNA was prepared using random hexamers and the levels of 4 histone genes were determined. […] To this end, cDNA prepared by random hexamer and Poly-T the ratio between total and poly-A tailed histone genes was determined. […]

A20 gene = experiment: ChIP of Pol II and Spt5 occupancy of the A20 gene; assay type: cell-based, human; conditions: for TNFα induction of Pol II and Spt5 levels at the A20 loci: TNFα+ 30 minutes; for Spt5 and Pol II occupancy at 3 loci of the A20 gene: basal conditions (TNFα-)
Method: Chromatin immunoprecipitation (ChIP)—HeLa cells were treated with DMSO (vehicle control) or the indicated compound (50 μM; 60 minutes), followed by TNF-α induction (30 minutes) in 100-mm plates. Following, the cells were cross-linked with 1% formaldehyde for 10 minutes at room temperature, and fixation was terminated by adding 1/20 volume of 2.5 M glycine.
Chromatin extraction and immunoprecipitation were carried out as previously described in Diamant et al., 2012. For immunoprecipitation (IP), 3 μg of anti-RNA polymerase II (ab817, Abcam) anti-Spt5 [previously described in Amir-Zilberstein et al., 2007] or control IgG (SC-2025, Santa Cruz Biotechnology) was added to 1 ml of the soluble chromatin DNA. IP and input samples were analyzed by qPCR as described above.
To further examine the impact of the identified SPIs on chromatin occupancy of Spt5 and Pol II, chromatin immunoprecipitation (ChIP) in the presence of DMSO, SPI-21 or SP-18 followed by 30 minutes TNFα treatment was performed. […] This finding is consistent with the increase in transcription under basal conditions exerted by SPI-21 but not by SPI-18 (FIG. 2A). Upon TNFα induction the levels of Pol II and Spt5 were dramatically elevated and this induction was diminished by both SPI-21 and SPI-18 at all the analyzed loci (FIG. 3G, TNFα+). This finding is consistent with the decrease in transcription under TNFα-induced conditions of both SPI-21 and SIP-18 (FIG. 3A).

SMILES | effect on Spt5-Pol II binding (co-immunoprecipitation) [1] | expression of the selected histone genes [2] | TNFα induction of Pol II and Spt5 levels at the A20 loci (A20 gene) | Spt5 and Pol II occupancy at 3 loci of the A20 gene (A20 gene)
Nc1ccccc1SC(CC(=O)c1cccs1)c1cccs1 (centres unmarked) [SPI-18] | did not disrupt Spt5-Pol II binding | diminished expression of the selected histone genes | diminished | unchanged
COc1ccc(C=CC(=O)c2cc(O)ccc2O)cc1 [SPI-21] | did not disrupt Spt5-Pol II binding | diminished expression of the selected histone genes | diminished | moderate but significant enhancement
